Experimental data as given in ChEMBL document CHEMBL1828571, “Discovery of novel selective norepinephrine inhibitors: 1-(2-morpholin-2-ylethyl)-3-aryl-1,3-dihydro-2,1,3-benzothiadiazole 2,2-dioxides (WYE-114152)” (J Med Chem, 2011).
Each block holds one molecule with its values, some of them ahead of it. Activity calls are given as the source filed them.

Experiments:
[1] = molecular target: T1, Sodium-dependent serotonin transporter (Homo sapiens, UniProt P31645); assay type: cell-based, JAR
Target sequence in this assay (P31645 whole entry): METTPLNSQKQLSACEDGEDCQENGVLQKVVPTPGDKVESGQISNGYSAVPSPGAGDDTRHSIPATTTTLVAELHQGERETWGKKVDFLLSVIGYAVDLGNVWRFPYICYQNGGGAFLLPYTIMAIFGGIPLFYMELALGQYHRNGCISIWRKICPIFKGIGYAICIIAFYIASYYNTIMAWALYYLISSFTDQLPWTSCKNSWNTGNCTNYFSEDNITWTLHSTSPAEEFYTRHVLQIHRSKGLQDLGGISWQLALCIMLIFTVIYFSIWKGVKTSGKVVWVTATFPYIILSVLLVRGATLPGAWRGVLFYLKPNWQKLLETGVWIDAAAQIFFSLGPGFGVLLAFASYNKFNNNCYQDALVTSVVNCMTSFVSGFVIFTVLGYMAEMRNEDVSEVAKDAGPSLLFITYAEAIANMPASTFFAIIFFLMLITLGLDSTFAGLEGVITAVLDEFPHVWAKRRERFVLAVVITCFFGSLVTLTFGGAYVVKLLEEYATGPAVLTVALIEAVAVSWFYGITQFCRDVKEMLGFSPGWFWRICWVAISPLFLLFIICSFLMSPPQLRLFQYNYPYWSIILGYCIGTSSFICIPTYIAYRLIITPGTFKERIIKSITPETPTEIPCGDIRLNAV

[2] = molecular target: T2, Sodium-dependent noradrenaline transporter (Homo sapiens, UniProt P23975); assay: biochemical
[3] = molecular target: T3, Sodium-dependent dopamine transporter (Homo sapiens, UniProt Q01959); assay: biochemical
Rattus norvegicus [4] = assay: Analgesic activity in Sprague-Dawley rat thermally-stimulated acute pain model assessed as increase in latency to nocicfensive response at 30 mg/kg, po after 1 to 5 hrs by hot plate assay; assay type: functional, organism-based; parameters: dose 30 mg/kg
Rattus norvegicus [5] = assay: Analgesic activity in Sprague-Dawley rat thermally-stimulated acute pain model assessed as increase in latency to nocicfensive response at 10 mg/kg, po after 1 to 5 hrs by hot plate assay; assay type: functional, organism-based; parameters: dose 10 mg/kg
Rattus norvegicus [6] = assay: Analgesic activity against carrageenan-induced hyperalgesia in Sprague-Dawley rat assessed as increase in paw withdrawal latency at 10 mg/kg, po after 4 hrs carrageenan challenge; assay type: functional, organism-based; parameters: dose 10 mg/kg
Rattus norvegicus [7] = assay: Analgesic activity against carrageenan-induced hyperalgesia in Sprague-Dawley rat assessed as increase in paw withdrawal latency at 30 mg/kg, po after 4 hrs carrageenan challenge; assay type: functional, organism-based; parameters: dose 30 mg/kg
Rattus norvegicus [8] = assay: Analgesic activity against FCA-induced mechanical hyperalgesia in Sprague-Dawley rat assessed as threshold to paw withdrawal at 3 mg/kg, po administered 24 hrs after FCA challenge measured after 3 hrs; assay type: functional, organism-based; parameters: dose 3 mg/kg
Rattus norvegicus [9] = assay: Analgesic activity against FCA-induced mechanical hyperalgesia in Sprague-Dawley rat assessed as threshold to paw withdrawal at 3 mg/kg, po administered 24 hrs after FCA challenge measured after 5 hrs; assay type: functional, organism-based; parameters: dose 3 mg/kg
Rattus norvegicus [10] = assay: Analgesic activity against spinal nerve ligation-induced mechanical hyperalgesia in po dosed Sprague-Dawley rat assessed as threshold to paw withdrawal; assay type: functional, organism-based
[11] = Plasma clearance in rat at 2 mg/kg, iv; assay type: ADME, organism-based; parameters: dose 2 mg/kg, route intravenous
[12] = Volume of distribution at steady state in rat at 2 mg/kg, iv; assay type: ADME, organism-based; parameters: dose 2 mg/kg, route intravenous; conditions: in vivo, read-out: Vdss
[13] = Cmax in rat at 10 mg/kg, po; assay type: ADME, organism-based; parameters: dose 10 mg/kg, route oral; conditions: in vivo
[14] = Tmax in rat at 10 mg/kg, po; assay type: ADME, organism-based; parameters: dose 10 mg/kg, route oral; conditions: in vivo
[15] = Half life in rat at 2 mg/kg, iv; assay type: ADME, organism-based; parameters: dose 2 mg/kg, route intravenous; conditions: in vivo
[16] = Half life in rat at 10 mg/kg, po; assay type: ADME, organism-based; parameters: dose 10 mg/kg, route oral; conditions: in vivo
[17] = AUC (0 to infinity) in rat at 2 mg/kg, iv; assay type: ADME, organism-based; parameters: time infinity, dose 2 mg/kg, route intravenous; conditions: plasma
[18] = AUC (0 to infinity) in rat at 10 mg/kg, po; assay type: ADME, organism-based; parameters: time infinity, dose 10 mg/kg, route oral; conditions: plasma
[19] = Oral bioavailability in rat at 10 mg/kg; assay type: ADME, organism-based; conditions: in vivo
[20] = Ratio of drug level in brain to plasma in rat; assay type: ADME; conditions: read-out: BPR
Rattus norvegicus [21] = assay: Increase of norepinephrine level in Sprague-Dawley rat medial prefrontal cortex at 30 mg/kg, po by microdialysis assay relative to baseline; assay type: functional
Rattus norvegicus [22] = assay: Increase of serotonin level in Sprague-Dawley rat medial prefrontal cortex at 30 mg/kg, po by microdialysis assay; assay type: functional, organism-based; parameters: dose 30 mg/kg
Homo sapiens [23] = organism: Homo sapiens; assay: Selectivity ratio of IC50 for human NET over IC50 for human SERT
Homo sapiens [24] = organism: Homo sapiens; assay: Selectivity ratio of IC50 for human NET over IC50 for human DAT
[25] = molecular target: T2, Sodium-dependent noradrenaline transporter
[26] = molecular target: T3, Sodium-dependent dopamine transporter; assay: Displacement of [3H]-WIN-35428 from human DAT expressed in CHO cells at 1 uM; assay type: cell-based
[27] = molecular target: T1, Sodium-dependent serotonin transporter; assay: Inhibition of human SERT expressed in JAR cells assessed as serotonin uptake at 6 uM; assay type: cell-based
Target sequence in this assay (P31645 whole entry, looked up): as the sequence (P31645 whole entry) above

T2 sequence (P23975 whole entry): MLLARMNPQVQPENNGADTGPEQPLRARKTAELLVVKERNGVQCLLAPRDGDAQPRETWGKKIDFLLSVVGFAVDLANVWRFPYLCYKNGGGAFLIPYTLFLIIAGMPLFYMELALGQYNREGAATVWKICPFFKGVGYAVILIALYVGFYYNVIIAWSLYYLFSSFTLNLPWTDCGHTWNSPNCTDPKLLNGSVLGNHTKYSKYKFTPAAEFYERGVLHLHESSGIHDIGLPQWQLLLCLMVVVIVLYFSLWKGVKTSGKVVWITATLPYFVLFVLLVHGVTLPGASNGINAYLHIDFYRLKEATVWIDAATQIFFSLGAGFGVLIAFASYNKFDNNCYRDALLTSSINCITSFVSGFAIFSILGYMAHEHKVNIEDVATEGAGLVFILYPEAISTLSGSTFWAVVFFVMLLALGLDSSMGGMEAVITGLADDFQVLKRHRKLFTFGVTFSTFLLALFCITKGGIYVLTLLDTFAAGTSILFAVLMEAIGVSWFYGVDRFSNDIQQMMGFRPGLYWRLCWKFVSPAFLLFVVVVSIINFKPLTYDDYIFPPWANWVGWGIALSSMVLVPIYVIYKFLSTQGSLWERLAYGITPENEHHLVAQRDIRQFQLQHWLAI
T3 sequence (Q01959 whole entry): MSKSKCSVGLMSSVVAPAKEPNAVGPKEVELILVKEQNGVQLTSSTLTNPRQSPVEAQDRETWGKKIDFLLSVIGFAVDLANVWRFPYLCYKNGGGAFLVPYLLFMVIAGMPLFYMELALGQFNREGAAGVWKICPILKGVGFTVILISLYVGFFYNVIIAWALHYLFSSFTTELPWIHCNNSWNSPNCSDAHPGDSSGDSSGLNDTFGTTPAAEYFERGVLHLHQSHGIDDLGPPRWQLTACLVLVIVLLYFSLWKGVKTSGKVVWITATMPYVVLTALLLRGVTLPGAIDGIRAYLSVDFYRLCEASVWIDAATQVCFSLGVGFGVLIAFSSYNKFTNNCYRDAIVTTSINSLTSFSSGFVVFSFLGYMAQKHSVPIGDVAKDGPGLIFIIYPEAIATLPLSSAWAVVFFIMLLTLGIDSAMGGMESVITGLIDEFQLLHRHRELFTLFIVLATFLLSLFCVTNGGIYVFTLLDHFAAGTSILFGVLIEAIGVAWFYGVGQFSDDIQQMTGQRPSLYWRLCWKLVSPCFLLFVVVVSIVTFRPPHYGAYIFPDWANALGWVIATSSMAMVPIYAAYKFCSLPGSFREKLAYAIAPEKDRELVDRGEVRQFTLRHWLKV

IC50 [1]: 6410 nM
clearance [11]: 38 mL/min/kg
Vd [12]: 5 L/kg
Cmax [13]: 373 ng/mL
Tmax [14]: 1 h
half-life [15]: 1.8 h
half-life [16]: 1.8 h
AUC(0-inf) [17]: 958 ng·h/mL
AUC(0-inf) [18]: 1320 ng·h/mL
bioavailability [19]: 28%
Kp [20]: 3.9
Ratio IC50 (Homo sapiens [23]): > 430
Ratio IC50 (Homo sapiens [24]): > 548
IC50 [25]: 15 nM
IC50 [2]: 5 nM
SMILES: O=S1(=O)N(CC[C@@H]2CNCCO2)c2ccccc2N1c1ccccc1F
Activity (Rattus norvegicus [4]): Active
Activity (Rattus norvegicus [5]): Active
Activity (Rattus norvegicus [6]): Active
Activity (Rattus norvegicus [7]): Active
Activity (Rattus norvegicus [8]): Active
Activity (Rattus norvegicus [9]): Active
Activity (Rattus norvegicus [10]): Dose-dependent effect
Activity (Rattus norvegicus [21]): 390%
Activity (Rattus norvegicus [22]): inactive

IC50 [1]: 8350 nM
inhibition [26]: 43%
IC50 [25]: 14 nM
IC50 [2]: 8 nM
SMILES: O=S1(=O)N(CCC2CNCCO2)c2cc(F)ccc2N1c1ccccc1F (configuration not stated)

IC50 [1]: 5790 nM
inhibition [26]: 20%
IC50 [25]: 7 nM
IC50 [2]: 13 nM
SMILES: O=S1(=O)N(CCC2CNCCO2)c2cccc(F)c2N1c1ccccc1F (configuration not stated)

IC50 [1]: 4130 nM
IC50 [2]: 143 nM
IC50 [3]: 2040 nM
SMILES: O=S1(=O)N(CC[C@@H]2CNCCO2)c2ccccc2N1c1ccc(F)cc1F

IC50 [1]: 806 nM
inhibition [26]: 23%
IC50 [25]: 120 nM
IC50 [2]: 209 nM
SMILES: O=S1(=O)N(CCC2CNCCO2)c2ccc(F)cc2N1c1ccccc1F (configuration not stated)

IC50 [1]: 992 nM
inhibition [26]: 50%
IC50 [25]: 22 nM
IC50 [2]: 5 nM
SMILES: O=S1(=O)N(CCC2CNCCO2)c2c(F)cccc2N1c1ccccc1F (configuration not stated)

Continued, molecule first:

SMILES: O=S1(=O)N(CCC2CNCCO2)c2ccccc2N1c1ccccc1 (racemic)
IC50 [1]: 1780 nM
IC50 [2]: 7 nM
IC50 [3]: 964 nM

SMILES: O=S1(=O)N(CC[C@@H]2CNCCO2)c2ccccc2N1c1c(F)cc(F)cc1F
IC50 [1]: 1400 nM
IC50 [2]: 80 nM

SMILES: CNC[C@@H](CCN1c2ccccc2N(c2ccccc2)S1(=O)=O)OC
IC50 [1]: 5100 nM
inhibition [26]: 39%
IC50 [2]: 13 nM

SMILES: CNC[C@H](CCN1c2ccccc2N(c2ccccc2)S1(=O)=O)OC
inhibition [27]: 52%
IC50 [2]: 103 nM
IC50 [3]: 1040 nM

SMILES: O=S1(=O)N(CC[C@@H]2CNCCO2)c2ccccc2N1c1ccc(F)cc1
IC50 [2]: 283 nM
IC50 [3]: 211 nM

SMILES: O=S1(=O)N(CC[C@H]2CNCCO2)c2ccccc2N1c1ccccc1
IC50 [1]: 1030 nM
inhibition [27]: 68%
IC50 [2]: 9 nM

SMILES: O=S1(=O)N(CC[C@@H]2CNCCO2)c2ccccc2N1c1ccccc1
IC50 [1]: 6770 nM
inhibition [27]: 55%
IC50 [2]: 5 nM

SMILES: CNC[C@H](O)CCN1c2ccccc2N(c2ccccc2F)S1(=O)=O
inhibition [27]: 28%

SMILES: O=S1(=O)N(CC2CNCCO2)c2ccccc2N1c1ccccc1 (racemic)
inhibition [27]: 0%
inhibition [26]: 32%
IC50 [25]: 147 nM
IC50 [2]: 74 nM

SMILES: CN1CCOC(CN2c3ccccc3N(c3ccccc3)S2(=O)=O)C1 (racemic)
inhibition [26]: 77%
IC50 [2]: 2300 nM

SMILES: O=S1(=O)N(CCC2CCCNC2)c2ccccc2N1c1ccccc1 (racemic)
IC50 [1]: 2980 nM
inhibition [26]: 95%
IC50 [25]: 54 nM
IC50 [2]: 30 nM

SMILES: O=S1(=O)N(C[C@H]2CNCCO2)c2ccccc2N1c1ccccc1
IC50 [3]: 341 nM

SMILES: O=S1(=O)N(C[C@@H]2CNCCO2)c2ccccc2N1c1ccccc1
IC50 [3]: 792 nM

SMILES: COc1cccc(N2c3ccccc3N(CC[C@@H]3CNCCO3)S2(=O)=O)c1
IC50 [1]: 749 nM
IC50 [2]: 99 nM
